Source: PubChem BioAssay (NCI)
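The compound was tested at five concentrations on cells cultured in 96-well plates, with a 48-hour exposure period. Here, GI50 denotes the concentration required for 50% inhibition of growth. TGI: concentration producing complete growth inhibition.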

Tests used:
Assay in all cases: inhibition of tumour cell growth, NCI panel, 48 h; in the data active = GI50 below about 0.43 µM; inactive = the rest
[1] = system: SN12C renal
[2] = system: SF-539 CNS
[3] = system: NCI-H522 lung
[4] = system: DU-145 prostate
[5] = system: NCI/ADR-RES ovarian
[6] = system: ACHN renal
[7] = system: OVCAR-8 ovarian
[8] = system: LOX IMVI melanoma
[9] = system: U251 CNS
[10] = system: MDA-MB-435
[11] = system: K-562 leukemia
[12] = system: HCT-15 colon
[13] = system: KM12 colon
[14] = system: NCI-H460 lung
[15] = system: SK-MEL-5 melanoma
[16] = system: HL-60(TB) leukemia
[17] = system: SNB-19 CNS
[18] = system: UACC-257 melanoma
[19] = system: CAKI-1 renal
[20] = system: MALME-3M melanoma
[21] = system: MCF7 breast
[22] = system: OVCAR-3 ovarian
[23] = system: SF-268 CNS
[24] = system: EKVX NSCLC
[25] = system: NCI-H226 lung
[26] = system: SK-MEL-28 melanoma
[27] = system: SNB-75 CNS
[28] = system: MDA-MB-231 breast
[29] = system: SR leukemia
[30] = system: 786-0 renal
[31] = system: SW-620 colon
[32] = system: RXF 393 renal
[33] = system: M14 melanoma
[34] = system: A498 renal
[35] = system: NCI-H23 lung
[36] = system: RPMI-8226 leukemia
[37] = system: OVCAR-5 ovarian
[38] = system: CCRF-CEM leukemia
[39] = system: BT-549 breast
[40] = system: OVCAR-4 ovarian
[41] = system: IGROV1 ovarian
[42] = system: HS 578T breast
[43] = system: MOLT-4 leukemia
[44] = system: SF-295 CNS
[45] = system: T-47D breast
[46] = system: SK-OV-3 ovarian
[47] = system: HOP-92 NSCLC
[48] = system: UO-31 renal
[49] = system: UACC-62 melanoma
[50] = system: PC-3 prostate
[51] = system: HCT-116 colon
[52] = system: SK-MEL-2 melanoma
[53] = system: HOP-62 NSCLC
[54] = system: COLO 205 colon
[55] = system: TK-10 renal
[56] = system: A549 NSCLC
[57] = system: HT29 colon
[58] = system: HCC-2998 colon

Fc1ccc(-c2nn3c(-c4ccc(F)c(Cl)c4)nnc3s2)cc1
> 50 µM: TGI [1] | TGI [2] | TGI [3] | TGI [4] | TGI [5] | TGI [6] | TGI [7] | TGI [8] | TGI [9] | TGI [10] | TGI [11] | TGI [12] | TGI [13] | TGI [14] | TGI [15] | TGI [16] | TGI [17] | TGI [19] | TGI [20] | TGI [21] | TGI [22] | TGI [23] | TGI [24] | TGI [25] | TGI [26] | TGI [28] | TGI [29] | TGI [30] | TGI [31] | TGI [33] | TGI [34] | TGI [35] | TGI [36] | TGI [37] | TGI [39] | TGI [41] | TGI [42] | TGI [43] | TGI [44] | TGI [45] | TGI [46] | TGI [47] | TGI [48] | TGI [49] | TGI [50] | TGI [51] | TGI [52] | TGI [53] | TGI [54] | TGI [55] | TGI [56] | TGI [57] | TGI [58]
inactive: GI50 [1] 32.3 µM | GI50 [2] > 50 µM | GI50 [3] 20.8 µM | GI50 [4] 36.3 µM | GI50 [5] 23.8 µM | GI50 [6] 29.1 µM | GI50 [7] 37.1 µM | GI50 [8] 32.8 µM | GI50 [9] 18.5 µM | GI50 [10] > 50 µM | GI50 [11] 34.3 µM | GI50 [12] 22.7 µM | GI50 [13] > 50 µM | GI50 [14] 27.7 µM | GI50 [15] 44.2 µM | GI50 [16] 27.4 µM | GI50 [17] 20.1 µM | GI50 [18] 10.6 µM | GI50 [19] 26 µM | GI50 [20] > 50 µM | GI50 [21] 30.3 µM | GI50 [22] > 50 µM | GI50 [23] 38.7 µM | GI50 [24] > 50 µM | GI50 [25] > 50 µM | GI50 [26] > 50 µM | GI50 [27] 11.3 µM | GI50 [28] 30.5 µM | GI50 [29] 43.8 µM | GI50 [30] 35.3 µM | GI50 [31] > 50 µM | GI50 [32] 0.688 µM | GI50 [33] > 50 µM | GI50 [34] > 50 µM | GI50 [35] > 50 µM | GI50 [36] 22.8 µM | GI50 [37] > 50 µM | GI50 [38] 5.52 µM | GI50 [39] 33.2 µM | GI50 [40] 10.1 µM | GI50 [41] 33.1 µM | GI50 [42] > 50 µM | GI50 [43] 26.3 µM | GI50 [44] 18.2 µM | GI50 [45] 34.8 µM | GI50 [46] 19.4 µM | GI50 [47] 15.6 µM | GI50 [48] 28.6 µM | GI50 [49] 34.8 µM | GI50 [50] 29.1 µM | GI50 [51] 21.6 µM | GI50 [52] > 50 µM | GI50 [53] 27.5 µM | GI50 [54] > 50 µM | GI50 [55] 14.2 µM | GI50 [56] 21.2 µM | GI50 [57] 22.9 µM | GI50 [58] > 50 µM
41.6 µM: TGI [18]
30.4 µM: TGI [27]
18.7 µM: TGI [32]
17.8 µM: TGI [38]
41 µM: TGI [40]
